# Where “and” joins values, the source holds several entries; their conditions need not be identical. Equal entries are not always repeated.
# Tested on: BDF1 mice, Adenocarcinoma 755 s.c., tumor weight T/C
# Experiment: NCI In Vivo Anticancer Drug Screen. Data for tumor model Adenocarcinoma 755 (subcutaneous) in B6D2F1 (BDF1) mice
# Settings: endpoint: mean tumor weight, higher = larger tumour
# Method in brief: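 Transplantable tumor implanted; mice dosed with compound or vehicle; survival or tumor size recorded; ratio of treated to vehicle control reported.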
# [1] = dose: 12.5 mg/kg/injection, schedule: Q01DX011 (ip), vehicle: methylcellulose (MC)
# [2] = dose: 25.0 mg/kg/injection, schedule: Q01DX011 (ip), vehicle: methylcellulose (MC)
# [3] = dose: 50.0 mg/kg/injection, schedule: Q01DX011 (ip), vehicle: methylcellulose (MC)
# [4] = dose: 56.0 mg/kg/injection, schedule: Q01DX011 (ip), vehicle: carboxymethylcellulose (CMC)
# [5] = dose: 100.0 mg/kg/injection, schedule: Q01DX011 (ip), vehicle: methylcellulose (MC)
# [6] = dose: 25.0 mg/kg/injection, schedule: Q01DX011 (ip), vehicle: saline
compound,measurement,setting,value
O=C1CN(/N=C\c2ccc([N+](=O)[O-])o2)C(=O)N1,T/C,"dose: 4.74 mg/kg/injection, schedule: Q01DX011 (ip), vehicle: carboxymethylcellulose (CMC)",111 % of control
same,T/C,"dose: 8.03 mg/kg/injection, schedule: Q01DX011 (ip), vehicle: carboxymethylcellulose (CMC)",96 % of control
same,T/C,"dose: 9.48 mg/kg/injection, schedule: Q01DX011 (ip), vehicle: carboxymethylcellulose (CMC)",121 % of control
same,T/C,[1],83 % of control
same,T/C,"dose: 16.05 mg/kg/injection, schedule: Q01DX011 (ip), vehicle: carboxymethylcellulose (CMC)",115 % of control
same,T/C,"dose: 18.95 mg/kg/injection, schedule: Q01DX011 (ip), vehicle: carboxymethylcellulose (CMC)",94 % of control
same,T/C,[2],61 % of control
same,T/C,"dose: 25.68 mg/kg/injection, schedule: Q01DX011 (ip), vehicle: carboxymethylcellulose (CMC)",68 % of control
same,T/C,"dose: 35.0 mg/kg/injection, schedule: Q01DX011 (ip), vehicle: carboxymethylcellulose (CMC)",84 % of control
same,T/C,"dose: 37.9 mg/kg/injection, schedule: Q01DX011 (ip), vehicle: carboxymethylcellulose (CMC)",80 % of control
same,T/C,"dose: 42.8 mg/kg/injection, schedule: Q01DX011 (ip), vehicle: carboxymethylcellulose (CMC)",41 % of control
same,T/C,"dose: 45.0 mg/kg/injection, schedule: Q01DX011 (ip), vehicle: carboxymethylcellulose (CMC)",64 % of control
same,T/C,[3],75 % of control
same,T/C,[4],98 % of control
same,T/C,"dose: 64.0 mg/kg/injection, schedule: Q01DX011 (ip), vehicle: carboxymethylcellulose (CMC)",72 % of control
same,T/C,"dose: 75.0 mg/kg/injection, schedule: Q01DX011 (ip), vehicle: methylcellulose (MC)",55 % of control
same,T/C,[5],89 % of control
O=C(CCBr)NCCCCNC(=O)CCBr,T/C,"dose: 56.0 mg/kg/injection, schedule: Q01DX011 (ip), vehicle: methylcellulose (MC)",83 % of control
same,T/C,"dose: 113.0 mg/kg/injection, schedule: Q01DX011 (ip), vehicle: methylcellulose (MC)",78 % of control
NC(CO)(CO)CO,T/C,"dose: 125.0 mg/kg/injection, schedule: Q01DX011 (ip), vehicle: saline",72 % of control
same,T/C,"dose: 250.0 mg/kg/injection, schedule: Q01DX011 (ip), vehicle: saline",69 % of control
same,T/C,"dose: 500.0 mg/kg/injection, schedule: Q01DX011 (ip), vehicle: saline",75 % of control
same,T/C,"dose: 1000.0 mg/kg/injection, schedule: Q01DX011 (ip), vehicle: saline",84 % of control
O=C(O)C(=O)O.[U],T/C,"dose: 12.5 mg/kg/injection, schedule: Q01DX011 (ip), vehicle: other",73 % of control
same,T/C,"dose: 12.5 mg/kg/injection, schedule: Q01DX011 (ip), vehicle: saline",68 % of control
same,T/C,"dose: 25.0 mg/kg/injection, schedule: Q01DX011 (ip), vehicle: other",50 % of control
same,T/C,[6],39 % of control
same,T/C,"dose: 50.0 mg/kg/injection, schedule: Q01DX011 (ip), vehicle: other",49 % of control
same,T/C,"dose: 50.0 mg/kg/injection, schedule: Q01DX011 (ip), vehicle: saline",36 % of control
same,T/C,"dose: 100.0 mg/kg/injection, schedule: Q01DX011 (ip), vehicle: saline",25 % of control
O=c1[nH]cc(F)c(=O)[nH]1,T/C,"dose: 3.38 mg/kg/injection, schedule: Q01DX011 (ip), vehicle: carboxymethylcellulose (CMC)",106 % of control
same,T/C,"dose: 3.87 mg/kg/injection, schedule: Q01DX011 (ip), vehicle: carboxymethylcellulose (CMC)",61 % of control
same,T/C,"dose: 4.13 mg/kg/injection, schedule: Q01DX011 (ip), vehicle: carboxymethylcellulose (CMC)",48 % of control and 71 % of control
same,T/C,"dose: 6.25 mg/kg/injection, schedule: Q01DX011 (ip), vehicle: methylcellulose (MC)",91 % of control
same,T/C,"dose: 6.75 mg/kg/injection, schedule: Q01DX011 (ip), vehicle: carboxymethylcellulose (CMC)",75 % of control
same,T/C,"dose: 7.75 mg/kg/injection, schedule: Q01DX011 (ip), vehicle: carboxymethylcellulose (CMC)",103 % of control and 85 % of control
same,T/C,"dose: 8.27 mg/kg/injection, schedule: Q01DX011 (ip), vehicle: carboxymethylcellulose (CMC)",151 % of control and 159 % of control
same,T/C,"dose: 10.8 mg/kg/injection, schedule: Q01DX011 (ip), vehicle: carboxymethylcellulose (CMC)",156 % of control
same,T/C,[1],44 % of control
same,T/C,"dose: 13.24 mg/kg/injection, schedule: Q01DX011 (ip), vehicle: carboxymethylcellulose (CMC)",76 % of control
same,T/C,"dose: 16.55 mg/kg/injection, schedule: Q01DX011 (ip), vehicle: carboxymethylcellulose (CMC)",100 % of control and 224 % of control and 75 % of control
same,T/C,"dose: 18.0 mg/kg/injection, schedule: Q01DX011 (ip), vehicle: carboxymethylcellulose (CMC)",108 % of control
same,T/C,"dose: 20.0 mg/kg/injection, schedule: Q01DX011 (ip), vehicle: saline",15 % of control
same,T/C,"dose: 22.06 mg/kg/injection, schedule: Q01DX011 (ip), vehicle: carboxymethylcellulose (CMC)",59 % of control
same,T/C,[2],13 % of control
same,T/C,[6],34 % of control
same,T/C,"dose: 27.0 mg/kg/injection, schedule: Q01DX011 (ip), vehicle: carboxymethylcellulose (CMC)",18 % of control and 27 % of control
same,T/C,"dose: 30.0 mg/kg/injection, schedule: Q01DX011 (ip), vehicle: saline",11 % of control
same,T/C,"dose: 33.1 mg/kg/injection, schedule: Q01DX011 (ip), vehicle: carboxymethylcellulose (CMC)",27 % of control
NNC(=O)c1nsnc1NC(N)=O,T/C,"dose: 43.0 mg/kg/injection, schedule: Q01DX011 (ip), vehicle: carboxymethylcellulose (CMC)",39 % of control
same,T/C,"dose: 60.0 mg/kg/injection, schedule: Q01DX011 (ip), vehicle: carboxymethylcellulose (CMC)",18 % of control
CC(C)CSc1nc(N)nc2c1ncn2CC(C)C,T/C,[2],21 % of control
same,T/C,[3],12 % of control
same,T/C,[5],1 % of control
O=P(OCC1OC(n2cnc3c(=S)nc[nH]c32)C(O)C1O)(Oc1ccccc1)Oc1ccccc1 (configuration not stated),T/C,"dose: 4.0 mg/kg/injection, schedule: Q01DX011 (ip), vehicle: methylcellulose (MC)",89 % of control
same,T/C,"dose: 8.0 mg/kg/injection, schedule: Q01DX011 (ip), vehicle: methylcellulose (MC)",88 % of control
same,T/C,"dose: 16.0 mg/kg/injection, schedule: Q01DX011 (ip), vehicle: methylcellulose (MC)",41 % of control
same,T/C,"dose: 31.0 mg/kg/injection, schedule: Q01DX011 (ip), vehicle: methylcellulose (MC)",39 % of control
same,T/C,"dose: 62.0 mg/kg/injection, schedule: Q01DX011 (ip), vehicle: methylcellulose (MC)",36 % of control
same,T/C,"dose: 125.0 mg/kg/injection, schedule: Q01DX011 (ip), vehicle: methylcellulose (MC)",34 % of control
COc1cc(-c2ccc(N=Nc3ccc4c(S(=O)(=O)O)cc(S(=O)(=O)O)c(N)c4c3O)c(OC)c2)ccc1N=Nc1ccc2c(S(=O)(=O)O)cc(S(=O)(=O)O)c(N)c2c1O,T/C,"dose: 1.0 mg/kg/injection, schedule: Q01DX011 (ip), vehicle: carboxymethylcellulose (CMC)",74 % of control
same,T/C,"dose: 2.0 mg/kg/injection, schedule: Q01DX011 (ip), vehicle: carboxymethylcellulose (CMC)",38 % of control
same,T/C,"dose: 4.0 mg/kg/injection, schedule: Q01DX011 (ip), vehicle: carboxymethylcellulose (CMC)",44 % of control
same,T/C,"dose: 8.0 mg/kg/injection, schedule: Q01DX011 (ip), vehicle: carboxymethylcellulose (CMC)",31 % of control and 43 % of control
CC1CN1P(=S)(N1CCCCC1)N1CC1C (configuration not stated),T/C,"dose: 25.0 mg/kg/injection, schedule: Q01DX011 (ip), vehicle: carboxymethylcellulose (CMC)",51 % of control
same,T/C,"dose: 50.0 mg/kg/injection, schedule: Q01DX011 (ip), vehicle: carboxymethylcellulose (CMC)",150 % of control
same,T/C,[4],64 % of control
same,T/C,"dose: 100.0 mg/kg/injection, schedule: Q01DX011 (ip), vehicle: carboxymethylcellulose (CMC)",121 % of control
same,T/C,"dose: 112.0 mg/kg/injection, schedule: Q01DX011 (ip), vehicle: carboxymethylcellulose (CMC)",19 % of control
same,T/C,"dose: 200.0 mg/kg/injection, schedule: Q01DX011 (ip), vehicle: carboxymethylcellulose (CMC)",102 % of control
O=C(Nc1ncnc2c1ncn2C1CC(OC(=O)c2ccc([N+](=O)[O-])cc2)C(COC(=O)c2ccc([N+](=O)[O-])cc2)O1)c1ccccc1 (configuration not stated),T/C,"dose: 16.7 mg/kg/injection, schedule: Q01DX011 (ip), vehicle: methylcellulose (MC)",104 % of control
same,T/C,[3],102 % of control
same,T/C,"dose: 150.0 mg/kg/injection, schedule: Q01DX011 (ip), vehicle: methylcellulose (MC)",62 % of control
Nc1nc(SN=Nc2ccc(S(=O)(=O)O)cc2)c2[nH]cnc2n1,T/C,"dose: 0.13 mg/kg/injection, schedule: Q01DX011 (sc), vehicle: alkali diluted with saline",70 % of control
same,T/C,"dose: 0.25 mg/kg/injection, schedule: Q01DX011 (sc), vehicle: alkali diluted with saline",48 % of control
same,T/C,"dose: 0.5 mg/kg/injection, schedule: Q01DX011 (ip), vehicle: alkali diluted with saline",50 % of control
same,T/C,"dose: 0.5 mg/kg/injection, schedule: Q01DX011 (ip), vehicle: other",46 % of control
same,T/C,"dose: 0.5 mg/kg/injection, schedule: Q01DX011 (sc), vehicle: alkali diluted with saline",32 % of control
same,T/C,"dose: 1.0 mg/kg/injection, schedule: Q01DX011 (ip), vehicle: alkali diluted with saline",12 % of control
same,T/C,"dose: 1.0 mg/kg/injection, schedule: Q01DX011 (ip), vehicle: other",3 % of control
same,T/C,"dose: 2.0 mg/kg/injection, schedule: Q01DX011 (ip), vehicle: alkali diluted with saline",1 % of control
same,T/C,"dose: 8.0 mg/kg/injection, schedule: Q01DX011 (ip), vehicle: alkali diluted with saline",1 % of control

# Source: PubChem BioAssay AID180 (DTP/NCI, 2004)
